Where “and” joins values, the source holds several entries; their conditions need not be identical. Equal entries are not always repeated.
Tests used:
Type in all cases: in vivo, human
[1] = Pilot clinical study: monitoring of blood serum components
Source text: (§1) The design of the clinical trial involves a blood sample being taken from the patients prior to commencing medication administration and then on four further occasions during the 13 week trial, at around days 13-16, days 26-30, days 35-60 and finally at days 80-90. Patients were also required to submit answers to a questionnaire on approximately a weekly basis to enable patients to be scored for pain using the McGill Pain Questionnaire (Melzack, R., 1975 “The McGill Pain Questionnaire: Major Properties and Scoring Methods”. Pain 1:277-299, the disclosure of which is included herein in its entirety by way of reference) scales for Pain Rating Index (PRI) and Present Pain Intensity (PPI). In the PRI index, which comprises two scores, higher scores indicate increasing levels of pain. In the PPI index present pain is given a score of 0 to 5, where 0 represents no pain and 5 represents excruciating pain. Patients were also scored prior to commencement of the trial medication for fatigue using the Fatigue Impact Scale (Fisk, J. D. et al, 1994, “Measuring the functional impact of fatigue: Initial Validation of the Fatigue Impact Scale”, Clinical Infectious Disease, 18 (Suppl 1):S79-83, the disclosure of which is included herein in its entirety by way of reference). On the first week at the clinic, prior to commencement of the trial medication, details of the patients' statin medication were recorded and daily doses noted.
(§2) After the pre-trial medication blood samples and questionnaires were taken (T0d) patients commenced taking daily doses of 1600 mg of magnesium orotate, administered as 2×400 mg tablets, morning and evening.
Blood samples were taken prior to commencement of trial medication (T0d) and after approximately 14 (T14d), 28 (T28d), 42 (T42d) and 56 (T56d) days to determine individual to baseline levels of uridine (μg/ml) arising from magnesium orotate (MgOr) administration, to thereby monitor patient compliance. Blood samples taken were also used to determine creatine kinase concentration (CK) (units/L), gamma glutaryl transferase (GGT) concentration, aspartate amino transferase (AST) concentration and alanine aminotransferase concentration (ALT) (units/L), as well as serum lipid levels including total cholesterol concentration, high density lipoprotein (HDL-CHOL) concentration, low density lipoprotein (LDL-CHOL) concentration, tryglyceride (TRIG) concentration and levels of other serum components routinely tested for including magnesium ion concentration.

[2] = tested on: statin induced muscle pain; assay: Pilot clinical study: McGill Pain Questionnaire scores (PRI, PPI) in statin patients given magnesium orotate; set-up: key to PRI—Pain Rating Index: McGill PRI; higher scores = more pain; conditions: for PPI—Present Pain Intensity: score 0 to 5; for PPI—Present Pain Intensity / PRI—Pain Rating Index: 1600 mg/day magnesium orotate
Source text: (§3) Table 1 outlines data for seventeen patients (numbered #i-#xvii) undergoing statin therapy for treatment of hypercholesterolemia and who had reported suffering from varying levels of muscular pain and fatigue. This study is ongoing but the results below follow the study in relation to these patients for varying periods, from day 0 (T0d) up to a maximum of 56 days (T56d).
as §1, §2
(§4) A preliminary statistical analysis of the results of the PRI, PPI and FIS tests for the patients on the trial as a group are presented in Table 3, below.

statin induced fatigue = assay: Pilot clinical study: Fatigue Impact Scale (FIS) in statin patients given magnesium orotate; set-up: FIS—Fatigue Impact Scale: scale not given here; conditions: for FIS—Fatigue Impact Scale: 1600 mg/day magnesium orotate
Source text: as §3, §1, §2, §4

[3] = patients within the normal ranges at commencement of the trial
[4] = most patients undergoing the magnesium orotate therapy

## magnesium orotate
[1]; all patients on the trial, data not presented
  serum uridine concentration: increase
[1]; day 43, only patient significantly outside normal range at commencement, dropped from 96 U/L at day 0
  GGT serum concentration: 83 U/L
[1]; day 43, same patient, dropped from 56 U/L at commencement
  AST serum concentration: 42 U/L
[1]; day 43, same patient, dropped from 105 U/L at commencement
  ALT serum concentration: 74 U/L
[1]; [3]
  alanine amino transferase (ALT) serum concentration: no significant impact
  aspartate amino transferase (AST) serum concentration: no significant impact
  gamma glutaryl transferase (GGT) serum concentration: no significant impact
  serum creatine kinase concentration (CK): no significant impact
[2]; T7d, baseline in T0d
  PPI—Present Pain Intensity: 2 (4×) and 1 (9×) and 0 (3×)
[2]; T14d
  PRI—Pain Rating Index: 9 (2×) and 8 and 28 and 16 and 23 and 42 and 4 and 7 and 15 and 37 and 2 and 3 and 0 and 6
  PPI—Present Pain Intensity: 2 (6×) and 1 (9×)
[2]; T21d
  PRI—Pain Rating Index: 9 (2×) and 8 (2×) and 24 and 13 and 15 and 42 and 2 and 35 and 0 and 3 and 12
  PPI—Present Pain Intensity: 2 (5×) and 1 (7×) and 0
[2]; T28d
  PRI—Pain Rating Index: 2 (3×) and 3 (2×) and 11 and 4 and 0
  PPI—Present Pain Intensity: 1 (4×) and 0 (3×) and 2
[2]; T35d
  PRI—Pain Rating Index: 0
  PPI—Present Pain Intensity: 0
[2]; T42d
  PRI—Pain Rating Index: 0
  PPI—Present Pain Intensity: 0
[2]; T49d
  PRI—Pain Rating Index: 0
  PPI—Present Pain Intensity: 0
[2]; T56d
  PRI—Pain Rating Index: 0
  PPI—Present Pain Intensity: 0
[2]; [4]
  PRI and PPI pain scores: significant improvements
Statin induced fatigue; T7d, baseline in T0d
  FIS—Fatigue Impact Scale: 0 and 19 and 9 and 23 and 88 and 7 and 24 and 17 and 101 and 5 and 47 and 77 and 44 and 40 and 6 and 21
Statin induced fatigue; T14d
  FIS—Fatigue Impact Scale: 0 and 38 and 25 and 86 (2×) and 9 (3×) and 32 and 49 and 3 and 48 and 31 and 11 and 21
Statin induced fatigue; T21d
  FIS—Fatigue Impact Scale: 0 and 19 and 18 and 39 and 92 and 4 and 30 and 8 and 91 and 10 and 67 and 21 and 3
Statin induced fatigue; T28d
  FIS—Fatigue Impact Scale: 0 and 22 and 51 and 1 and 7 and 77 and 9 and 50
Statin induced fatigue; T35d
  FIS—Fatigue Impact Scale: 0 and 22
Statin induced fatigue; T42d
  FIS—Fatigue Impact Scale: 0 and 13
Statin induced fatigue; T49d
  FIS—Fatigue Impact Scale: 0
Statin induced fatigue; T56d
  FIS—Fatigue Impact Scale: 0
Statin induced fatigue; [4]
  FIS fatigue score: significant improvements

Reference: patent US8293755B2, “Treatment of statin side effects using uridine derivatives” (Magral Pty Ltd., priority 2001, dated 2012)
